Values quoted from earlier work as cited in patent US20060024236A1, “Bowel preparation for virtual colonoscopy” (priority 2004, published 2006).

Assays:
[1] = compared with PEG, cleansing before CC, meta-analysis of trials
[2] = compared with PEG

| SMILES | efficacy of colonic cleansing [1] | tolerability of oral cleansing agent [1] | residual colonic fluid at VC [2] | opacification of residual colonic fluid (oral) | tagging of residual fecal material to distinguish it from true colonic polyps (oral, given as part of the colon prep) | interference with subsequent CC examination (orally administered) |
| --- | --- | --- | --- | --- | --- | --- |
| O=P(O)(O)O [NaP, sodium phosphate] | more efficacious | better tolerated | significantly less residual colonic fluid |  |  |  |
| O=S(=O)([O-])[O-].[Ba+2] [barium sulfate] |  |  |  | does not adequately opacify | effective | does not interfere |
